# Measured values reported in US20050085444A1, “Cosmetic or dermatological use of vitamin a or the esters thereof in combination with a partly methylated beta-cyclodextrin” (priority 2002, published 2005).
# Conditions: fresh human skin with dermis, control/VAP gel and RAMEB/VAP gel, contact time 24 hours
# Description: The study is carried out using the Franz cells characterized above.
# After a contact time of 24 hours, the excess gel on the surface of the skin is washed off with the aid of cotton buds.
# The cotton buds together with the upper part of the cell are immersed in 10 ml of isopropanol and ultrasonicated for 15 minutes and then stirred for 2 hours.
# The solutions are diluted to 1/10 and filtered on a 0.2 μm filter before assaying.
# The stratum corneum is collected by 7 successive strippings (pressure 300 g/cm^2, duration 12 s). The VAP is extracted by solubilization in 2 ml of methanol overnight at 4° C., followed by stirring for 2 hours and finally filtration on a 0.2 μm filter before assaying.
# With the stratum corneum removed, the epidermis is separated from the dermis with the aid of a scalpel.
# The VAP is extracted from the epidermis by solubilization of the latter in 1 ml of methanol overnight at 4° C., followed by stirring for 2 hours and finally filtration on a 0.2 μm filter before assaying.
# The VAP assays are performed by HPLC.
smiles,measurement,value
"CCC(=O)OC/C=C(C)/C=C/C=C(C)/C=C/C1=C(C)CCCC1(C)C [VAP, vitamin A propionate]",VAP detected in the reception liquid,No trace
